Converted amounts (≈) assume the structure as drawn. Where two headings read alike, the source gives them in different places. Some results are limits rather than exact numbers.

For test [1], the system named is Pseudomonas aeruginosa MGH-2. Kind of test: in vitro antibacterial activity, serial dilution (MIC). Conditions: MGH2, 18-20 hours static incubation, read-out: Minimal Inhibitory Concentration (MIC). The class given is cell-based. As to the method:
(§1) The in vitro antibacterial activity of the compounds of the invention was determined by conventional serial dilution procedures. Bacterial cultures were grown in tryptose phosphate broth or brain heart infusion broth (containing heat-inactivated normal horse serum for tests with S. pyogenes) overnight at 37° C. and subsequently diluted in double strength broth to provide bacterial inocula of about 2×10^5 cells/ml. Aqueous solutions of the compounds of the invention were prepared by dissolving the free acid form in 0.5N sodium hydroxide. The solutions were diluted with sterile distilled water to 1000 mcg/ml of compound in terms of the free acid. Serial two-fold dilutions of the compound stock solutions were prepared in water and 0.5 ml of each dilution was transferred to sets of tubes, one set for each bacterial inoculum.

Test [2] concerns Proteus mirabilis MGH-1. The description is as above. The class given is cell-based. Conditions: MGH1, 18-20 hours static incubation, read-out: Minimal Inhibitory Concentration (MIC). The procedure:
as §1

For test [3], the system named is Klebsiella pneumoniae 39645. The test is described as above. It is filed as cell-based. Conditions: 18-20 hours static incubation, read-out: Minimal Inhibitory Concentration (MIC). As to the method:
as §1

The test system of test [4] is Escherichia coli Vogel. The description is as above. It is filed as cell-based. The conditions noted are these: 18-20 hours static incubation, read-out: Minimal Inhibitory Concentration (MIC). As to the method: as §1
In test [5] the test system is Streptococcus pyogenes C203. The description is as above. It is filed as cell-based. Conditions: 18-20 hours static incubation, read-out: Minimal Inhibitory Concentration (MIC). The procedure: as §1
Test [6] relates to Proteus vulgaris 9920. The description is as above. The conditions noted are these: 18-20 hours static incubation, read-out: Minimal Inhibitory Concentration (MIC). The class given is cell-based. As to the method:
as §1

In test [7] the test system is Staphylococcus aureus Smith. Described as above. The class given is cell-based. The conditions noted are these: 18-20 hours static incubation, read-out: Minimal Inhibitory Concentration (MIC). The procedure:
as §1

Test [8] concerns Klebsiella pneumoniae 39645. Kind of test: in vivo antibacterial activity in mice infected with K. pneumoniae (PD50). The conditions noted are these: Klebsiella pneumoniae, 39645, sc, 336 h, read-out: Protective Dose (PD50). More on the design: species or system mouse (female) infected with Klebsiella pneumoniae. The procedure: (§2) The in vivo antibacterial activity of the compounds of the invention was determined in female mice, 18-20 grams each, by the following procedure:
(§3) Aqueous solutions of the compounds to be tested were prepared by dissolving the free acid form in dilute sodium hydroxide and diluting the solution with distilled water to be desired volume.
(§4) Cultures of Escherichia coli Vogel prepared in brain heart infusion broth, cultures of Klebsiella pneumoniae 39645 grown in tryptose phosphate broth with 5% rabbit serum diluted in the same broth and cultures of Pseudomonas aeruginosa MGH-2 grown on brain heart infusion agar and suspended in physiological saline, were used to infect the mice as follows:
K. pneumoniae: mice were inoculated intramuscularly in the right hind leg with 0.2 ml of the bacterial test inoculum (2.05×10^4 cells/ml).
Mice infected with K. pneumoniae were medicated at the following times: seventeen hours and one hour preinfection, six hours postinfection and twice a day for the next three days. The test compound was administered by both subcutaneous (0.2 ml) and oral (0.5 ml) routes. Deaths were recorded daily for fourteen days.
(§5) Groups of ten animals each for four or five dose levels were thus treated and the number of survivors in each group recorded. The fifty percent protective dose values (PD50) were then calculated.

Test [9] relates to Escherichia coli Vogel. The test is described as follows: in vivo antibacterial activity in mice infected with E. coli (PD50). More on the design: species or system mouse (female) infected with Escherichia coli. The conditions noted are these: sc, 168 h, read-out: Protective Dose (PD50). The procedure:
as §2, §3, §4
Mice infected with E. coli were medicated once (0.5 ml) one-half hour post infection, the test compound being administered by either the subcutaneous (s.c.) or oral (p.o.) route. Deaths were recorded daily for seven days.
as §5

Test [10] deals with Pseudomonas aeruginosa MGH-2. Kind of test: in vivo antibacterial activity in mice infected with P. aeruginosa (PD50). Details: species or system mouse (female) infected with Pseudomonas aeruginosa. The conditions noted are these: MGH2, sc, 168 h, read-out: Protective Dose (PD50). The procedure: as §2, §3, §4
Deaths were recorded daily for seven days.
as §5

[11] abbreviates: mouse, K. pneumoniae, s.c., pre- and postinfection, 14 days.
Where [12] appears, read: mouse, E. coli, s.c., once one-half hour post infection, 7 days.

As to `CCNn1cc(C(=O)O)c(=O)c2cc(F)c(Cl)cc21` [7-Chloro-1-ethylamino-6-fluoro-1,4-dihydro-4-oxo-3-quinolinecarboxylic acid], the MIC in test [1] worked out at 31.3 µg/mL (≈ 110 µM); in test [2], 3.9 µg/mL (≈ 13.7 µM); in test [3], 3.9 µg/mL (≈ 13.7 µM); in test [4] it was 1.95 µg/mL (≈ 6.85 µM); in test [5], 31.3 µg/mL (≈ 110 µM); in test [6] it was 0.25 µg/mL (≈ 0.878 µM). Also, in test [7], the MIC was determined as 15.6 µg/mL (≈ 54.8 µM).

As to `CNn1cc(C(=O)O)c(=O)c2cc(F)c(N3CCN(C(C)=O)CC3)cc21` [Example 14, 7-(4-Acetyl-1-piperazinyl)-6-fluoro-1,4-dihydro-1-methylamino-4-oxo-3-quinolinecarboxylic acid], the ED50 in test [8] (setting [11]) and in test [9] (setting [12]) was 100 mg/kg throughout. Also, the MIC in [1] stood at 62.5 µg/mL (≈ 172 µM); in test [2] it was 15.6 µg/mL (≈ 43.1 µM); in test [4], 15.6 µg/mL (≈ 43.1 µM); in test [5], 31.3 µg/mL (≈ 86.4 µM); in test [6], 1.95 µg/mL (≈ 5.38 µM).

Take `CNn1cc(C(=O)O)c(=O)c2cc(F)c(N3CCSCC3)cc21` [Example 21, 6-Fluoro-1,4-dihydro-1-methylamino-4-oxo-7-(4-thiomorpholinyl)-3-quinolinecarboxylic acid]: the MIC was 4 µg/mL (≈ 11.9 µM) in test [1]; 2 µg/mL (≈ 5.93 µM) in test [2]; 0.5 µg/mL (≈ 1.48 µM) in [3]; 0.5 µg/mL (≈ 1.48 µM) in test [4]; above 8 µg/mL in test [5]; 0.5 µg/mL (≈ 1.48 µM) in test [7]. Further, in test [9] (setting [12]), the ED50 is above 200 mg/kg.

Take `CNn1cc(C(=O)O)c(=O)c2cc(F)c(N3CCCN(C)CC3)cc21` [Example 20, 6-Fluoro-7-(hexahydro-4-methyl-1H-1,4-diazapin-1-yl)-1,4-dihydro-1-methylamino-4-oxo-3-quinolinecarboxylic acid]: the values for the ED50 in test [8] (setting [11]) and in [9] (setting [12]) were 33 mg/kg and 3.6 mg/kg, respectively. Also, the MIC in test [1] is 4 µg/mL (≈ 11.5 µM); in test [2], 2 µg/mL (≈ 5.74 µM); in test [3], 4 µg/mL (≈ 11.5 µM); in test [4] it was 2 µg/mL (≈ 5.74 µM); in test [5], 32 µg/mL (≈ 91.9 µM); in test [7] it was 4 µg/mL (≈ 11.5 µM).

Consider `CN1CCN(c2cc3c(cc2F)c(=O)c(C(=O)O)cn3N(C)C)CC1` [Example 7, 6-Fluoro-1-dimethylamino-1,4-dihydro-7-(4-methyl-1-piperazinyl)-4-oxo-3-quinolinecarboxylic acid], for which the values for the ED50 in test [8] (setting [11]) and in test [9] (setting [12]) were 29 mg/kg and 1.66 mg/kg, respectively. The MIC in test [1] came out at 2 µg/mL (≈ 5.74 µM); in [2], 2 µg/mL (≈ 5.74 µM); in test [3] it was 2 µg/mL (≈ 5.74 µM); in [4], 0.5 µg/mL (≈ 1.44 µM); in test [5] it was 31.3 µg/mL (≈ 89.8 µM); in [6], 0.12 µg/mL (≈ 0.344 µM).

As to `CCCNn1cc(C(=O)O)c(=O)c2cc(F)c(N3CCN(C)CC3)cc21` [Example 6, 6-Fluoro-1,4-dihydro-7-(4-methyl-1-piperazinyl)-4-oxo-1-propylamino-3-quinolinecarboxylic acid], the ED50 was above 200 mg/kg in [8] (setting [11]) and 32 mg/kg in test [9] (setting [12]). Moreover, the MIC in [1] was 31.3 µg/mL (≈ 86.4 µM); in test [2], 31.3 µg/mL (≈ 86.4 µM); in test [3] it was 2 µg/mL (≈ 5.52 µM); in test [4], 2 µg/mL (≈ 5.52 µM); in test [5] it was 125 µg/mL (≈ 345 µM); in test [6], 2 µg/mL (≈ 5.52 µM). For the same compound, the MIC in test [7] came to 15.6 µg/mL (≈ 43 µM).

Regarding `CNn1cc(C(=O)O)c(=O)c2cc(F)c(N3CCNCC3)cc21` [Example 4, 6-Fluoro-1,4-dihydro-1-methylamino-4-oxo-7-(1-piperazinyl)-3-quinolinecarboxylic acid], the ED50 in [8] is 6.25 mg/kg; in test [10], 0.46 mg/kg; in [9], 0.32 mg/kg. Besides, the MIC in test [1] was found to be 1 µg/mL (≈ 3.12 µM); in test [2] it was 0.5 µg/mL (≈ 1.56 µM); in test [3], 1 µg/mL (≈ 3.12 µM); in [4], 1 µg/mL (≈ 3.12 µM); in test [6] it was 0.25 µg/mL (≈ 0.78 µM); in [7], 2 µg/mL (≈ 6.24 µM).

In the case of `CN1CCN(c2cc3c(cc2F)c(=O)c(C(=O)O)cn3N)CC1` [Example 3, 1-Amino-6-fluoro-1,4-dihydro-4-oxo-7-(4-methyl-1-piperazinyl)-3-quinolinecarboxylic acid], the ED50 worked out at 30.5 mg/kg in test [8] (setting [11]) and 3.13 mg/kg in [9] (setting [12]). For the same compound, the MIC in test [1] was found to be 15.6 µg/mL (≈ 48.7 µM); in test [2] it was 2 µg/mL (≈ 6.24 µM); in test [3], 2 µg/mL (≈ 6.24 µM); in test [4] it was 2 µg/mL (≈ 6.24 µM); in test [5], 62.5 µg/mL (≈ 195 µM); in [6], 1 µg/mL (≈ 3.12 µM).

With `CNn1cc(C(=O)O)c(=O)c2cc(F)c(N3CCN(C(C)C)CC3)cc21` [Example 10, 6-Fluoro-1,4-dihydro-1-methylamino-7-[4-(1-methylethyl)-1-piperazinyl]-4-oxo-3-quinolinecarboxylic acid], the ED50 stood at 50 mg/kg in test [8] (setting [11]) and 2.7 mg/kg in [9] (setting [12]). Further, the MIC in [1] was 8 µg/mL (≈ 22.1 µM); in test [2], 4 µg/mL (≈ 11 µM); in test [3], 0.5 µg/mL (≈ 1.38 µM); in test [4], 0.5 µg/mL (≈ 1.38 µM); in test [5], 4 µg/mL (≈ 11 µM); in test [7], 2 µg/mL (≈ 5.52 µM).

Turning to `CNn1cc(C(=O)O)c(=O)c2cc(F)c(N3CCC(O)C3)cc21` (stereo not shown) [Example 22, 6-Fluoro-1,4-dihydro-7-(3-hydroxy-1-pyrrolidinyl)-1-methylamino-4-oxo-3-quinolinecarboxylic acid], the ED50 in [8] (setting [11]) is 118 mg/kg; in test [9] (setting [12]), 10.4 mg/kg. Also, the MIC was 4 µg/mL (≈ 12.4 µM) in test [1]; 1 µg/mL (≈ 3.11 µM) in test [2]; 4 µg/mL (≈ 12.4 µM) in test [3]; 1 µg/mL (≈ 3.11 µM) in test [4]; 16 µg/mL (≈ 49.8 µM) in [5]; 1 µg/mL (≈ 3.11 µM) in test [7].

The record behind these values is patent publication US4499091A, “1-Amino (or substituted amino)-1,4-dihydro-4-oxo-6-fluoro-7-heterylquinoline-3-carboxylic acids and their use as antibacterial agents” (Sterling Drug Inc., priority 1983, dated 1985).
